Results: patent publication US20020002124A1, “Antimicrobial cleansing compositions” (priority 2000, published 2002)

Assay: Mildness to the skin (drying, stinging) on topical use
Type: in vivo
Details: as proton donating agent in the compositions

For `O=C1CCC(C(=O)O)N1` (stereo not shown) [2-pyrrolidone-5 carboxylic acid], the “mildness to the skin and stinging compared with other acids suitable for topical application” value was “milder to the skin and causes less stinging than many other acids”.
